According to ChEMBL document CHEMBL4725268, “Anticonvulsant and analgesic in neuropathic pain activity in a group of new aminoalkanol derivatives” (Bioorg Med Chem Lett, 2020):
Activity calls are given as the source filed them.

How the values were obtained:
[1] = Toxicity in mouse assessed as lethality at 30 mg/kg, ip; format: organism-based; conditions: in vivo
[2] = Toxicity in mouse assessed as lethality at 50 mg/kg, ip; format: organism-based; conditions: in vivo
Mus musculus [3] = experiment: Anticonvulsant activity in ip dosed albino mouse assessed as protection against 50 mA current-induced seizure by maximal electroshock seizure test; format: functional
[4] = target: T1, 5-hydroxytryptamine receptor 1A (Homo sapiens, UniProt P08908); experiment: Binding affinity to 5-HT1A (unknown origin)
T1 sequence (P08908 whole entry): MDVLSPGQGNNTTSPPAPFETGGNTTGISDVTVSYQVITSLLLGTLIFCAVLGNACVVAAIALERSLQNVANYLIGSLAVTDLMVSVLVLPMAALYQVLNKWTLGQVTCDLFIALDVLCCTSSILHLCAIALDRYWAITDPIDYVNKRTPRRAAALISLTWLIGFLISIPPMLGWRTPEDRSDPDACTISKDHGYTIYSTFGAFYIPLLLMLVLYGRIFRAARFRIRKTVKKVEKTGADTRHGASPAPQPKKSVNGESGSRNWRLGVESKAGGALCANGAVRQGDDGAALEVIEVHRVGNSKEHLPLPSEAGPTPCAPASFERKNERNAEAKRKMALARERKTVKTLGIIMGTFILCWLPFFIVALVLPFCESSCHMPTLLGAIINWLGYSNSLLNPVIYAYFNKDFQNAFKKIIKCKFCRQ

in vitro [5] = conditions: mouse, microsomes
Description: Metabolic stability in mouse microsome assessed as intrinsic clearance

in vitro [6] = conditions: mouse, microsomes; remark: listed apart in the source
Description: Metabolic stability in mouse microsome assessed as half life

[7] = Drug metabolism in mouse microsome assessed as formation of monohydroxylated metabolite; format: ADME; conditions: microsomes
[8] = Protection index, ratio of TD50 for toxicity in ip dosed mouse to ED50 for anticonvulsant activity in ip dosed mouse; format: organism-based; conditions: in vivo, read-out: PI
Mus musculus [9] = experiment: Antiallodynic activity in mouse model of OXA-induced peripheral neuropathy assessed as mean paw withdrawal threshold at 15 mg/kg, ip administered after 3 hrs of OXA stimulation and measured after 1 hr by Von-frey method (reference value: 3.144 +/- 0.169 g); format: functional
Mus musculus [10] = experiment: Antiallodynic activity in mouse model of OXA-induced peripheral neuropathy assessed as mean latency time to nocifensive response at 15 mg/kg, ip administered after 3 hrs of OXA stimulation and measured after 1 hr by cold plate method (reference value: 59.76 +/- 0.16 sec); format: functional
Mus musculus [11] = experiment: Antiallodynic activity in mouse model of OXA-induced peripheral neuropathy assessed as mean paw withdrawal threshold at 15 mg/kg, ip administered after 7 days of OXA stimulation and measured after 1 hr by Von-frey method (reference value: 3.192 +/- 0.181 g); format: functional
[12] = Antioxidant activity assessed as DPPH radical scavenging activity at 125 to 1000 uM by microplate method; format: functional; conditions: dose microM 125-1000
[13] = Toxicity in ip dosed mouse assessed as motor impairment by rotarod test; format: organism-based; conditions: in vivo
Mus musculus [14] = experiment: Antiallodynic activity in mouse model of OXA-induced peripheral neuropathy assessed as mean latency time to nocifensive response at 15 mg/kg, ip administered after 7 days of OXA stimulation and measured after 1 hr by cold plate method (reference value: 57.64 +/- 1.267 sec); format: functional
Mus musculus [15] = experiment: Anticonvulsant activity in ip dosed mouse assessed as protection against current-induced seizure by maximal electroshock seizure test; format: functional
[16] = Antimicrobial activity against clinical strain Bifidobacterium assessed as reduction in bacterial growth at 0.195 to 100 ug/ml by disk diffusion method; conditions: dose 0.195-100 µg/ml
Mus musculus [17] = experiment: Antiallodynic activity in mouse model of OXA-induced peripheral neuropathy assessed as mean paw withdrawal threshold at 18 mg/kg, ip administered after 3 hrs of OXA stimulation and measured after 1 hr by Von-frey method (reference value: 3.144 +/- 0.169 g); format: functional
Salmonella enterica = experiment: Antimicrobial activity against Salmonella enterica ATCC 51957 assessed as reduction in bacterial growth at 0.195 to 100 ug/ml by serial dilution method; format: organism-based; conditions: in vivo, dose 0.195-100 µg/ml
Mus musculus [18] = experiment: Antiallodynic activity in mouse model of OXA-induced peripheral neuropathy assessed as mean paw withdrawal threshold at 18 mg/kg, ip administered after 7 days of OXA stimulation and measured after 1 hr by Von-frey method (reference value: 3.192 +/- 0.181 g); format: functional
Hoylesella loescheii = experiment: Antimicrobial activity against Prevotella loescheii ATCC 15930 assessed as reduction in bacterial growth at 0.195 to 100 ug/ml by disk diffusion method; format: organism-based, DSM 19665 = JCM 12249 = ATCC 15930; conditions: in vivo, dose 0.195-100 µg/ml
Escherichia coli [19] = experiment: Antimicrobial activity against Escherichia coli ATCC 25922 assessed as reduction in bacterial growth at 0.195 to 100 ug/ml by serial dilution method; format: organism-based; conditions: in vivo, dose 0.195-100 µg/ml
Mus musculus [20] = experiment: Antiallodynic activity in mouse model of OXA-induced peripheral neuropathy assessed as mean latency time to nocifensive response at 18 mg/kg, ip administered after 3 hrs of OXA stimulation and measured after 1 hr by cold plate method (reference value: 59.76 +/- 0.16 sec); format: functional
Clostridioides difficile = experiment: Antimicrobial activity against clinical strain Clostridium difficile assessed as reduction in bacterial growth at 0.195 to 100 ug/ml by disk diffusion method; format: organism-based; conditions: in vivo, dose 0.195-100 µg/ml
Escherichia coli [21] = experiment: Antimicrobial activity against Escherichia coli ATCC 35218 assessed as reduction in bacterial growth at 0.195 to 100 ug/ml by serial dilution method; format: organism-based; conditions: in vivo, dose 0.195-100 µg/ml
Enterococcus faecalis = experiment: Antimicrobial activity against Enterococcus faecalis ATCC 29212 assessed as reduction in bacterial growth at 0.195 to 100 ug/ml by serial dilution method; format: organism-based; conditions: in vivo, dose 0.195-100 µg/ml
[22] = Toxicity in mouse assessed as lethality at 10 mg/kg, ip; format: organism-based; conditions: in vivo
Staphylococcus aureus [23] = experiment: Antimicrobial activity against clinical strain Staphylococcus aureus assessed as reduction in bacterial growth at 0.195 to 100 ug/ml by serial dilution method; format: organism-based; conditions: in vivo, dose 0.195-100 µg/ml
Mus musculus [24] = experiment: Antiallodynic activity in mouse model of OXA-induced peripheral neuropathy assessed as mean latency time to nocifensive response at 18 mg/kg, ip administered after 7 days of OXA stimulation and measured after 1 hr by cold plate method (reference value: 57.64 +/- 1.267 sec); format: functional
Bacteroides fragilis = experiment: Antimicrobial activity against Bacteroides fragilis ATCC 25285 assessed as reduction in bacterial growth at 0.195 to 100 ug/ml by disk diffusion method; format: organism-based; conditions: in vivo, dose 0.195-100 µg/ml
Staphylococcus aureus [25] = experiment: Antimicrobial activity against Staphylococcus aureus ATCC 25923 assessed as reduction in bacterial growth at 0.195 to 100 ug/ml by serial dilution method; format: organism-based; conditions: in vivo, dose 0.195-100 µg/ml

With Cc1cc(C)c(OCCCN[C@H]2CC[C@H](O)CC2)c(C)c1 the Activity [1] was “Toxic”.

With Cc1ccc(OCCCN2CCC(O)CC2)c(C)c1 the Activity [2] was “Non-Toxic”.

CC(C)NCC(O)COc1cccc2ccccc12 (racemic) [PROPRANOLOL] gave an ED50 (Mus musculus [3]) of 1.2 mg/kg.

In the case of Cc1cc(C)c(OCCCN[C@@H]2CCCC[C@H]2O)c(C)c1 (relative stereo), the Ki [4] is reported as 2370 nM, the microsomal CLint (in vitro [5]) is reported as 128 µL/min/mg and the half-life (in vitro [6]) is reported as 27.2 min. The Drug metabolism [7] was “Metabolite_Detected”, the selectivity ratio [8] was 2.9 and the Activity (Mus musculus [9]) was 1.999 g. For the same compound, the Time (Mus musculus [10]) was 19.35 s, the Activity (Mus musculus [11]) was 1.958 g and the Activity [12] was “inactive”. For the same compound, the TD50 [13] was 42.9 mg/kg, the Activity [2] was “Non-Toxic” and the Time (Mus musculus [14]) was 7.09 s. For the same compound, the ED50 (Mus musculus [15]) was 14.8 mg/kg.

For Cc1cc(C)c(OCCCN2CCCC(O)C2)c(C)c1.Cl (racemic), the Activity [16] was “Non-Toxic”, the Ki [4] was 3390 nM and the microsomal CLint (in vitro [5]) was 44.5 µL/min/mg. The Activity (Mus musculus [17]) was 1.958 g, the Activity (Salmonella enterica) was “Non-Toxic” and the half-life (in vitro [6]) was 38.9 min. The Activity (Mus musculus [18]) was 1.947 g, the Drug metabolism [7] was “Metabolite_Detected” and the Activity (Hoylesella loescheii) was “Non-Toxic”. For the same compound, the Activity (Escherichia coli [19]) was “Non-Toxic”, the Time (Mus musculus [20]) was 18.18 s and the selectivity ratio [8] was 3.86. The Activity (Clostridioides difficile) was “Non-Toxic”, the Activity (Escherichia coli [21]) was “Non-Toxic” and the Activity (Enterococcus faecalis) was “Non-Toxic”. The Activity [22] was “Non-Toxic”, the Activity (Staphylococcus aureus [23]) was “Non-Toxic” and the Activity [12] was “inactive”. The TD50 [13] was 70.2 mg/kg, the Time (Mus musculus [24]) was 10.65 s and the Activity [1] was “Non-Toxic”. The Activity (Bacteroides fragilis) was “Non-Toxic”, the ED50 (Mus musculus [15]) was 18.2 mg/kg and the Activity (Staphylococcus aureus [25]) was “Non-Toxic”.
